Converted amounts (≈) assume the structure as drawn. The source made the active and inactive calls. The calls are words filed in the database; no cut-off is given here.
Legend:
[1] = test system: Plasmodium berghei; experiment: Antimalarial activity as parasitaemia against Plasmodium berghei ANKA infected Swiss albino mice (Mus musculus) at 100 uM/kg intraperitoneal dose after 3 days; assay type: functional
[2] = test system: Plasmodium falciparum; experiment: Antimalarial activity against Plasmodium falciparum D6; assay type: functional, organism-based
[3] = test system: Mycobacterium tuberculosis; experiment: Antitubercular activity against Mycobacterium tuberculosis; assay type: functional
[4] = test system: Human immunodeficiency virus; experiment: Antiviral activity against Human immunodeficiency virus; assay type: functional, organism-based; details: Human immunodeficiency virus 1
[5] = test system: A549; experiment: Cytotoxicity against human A549 cells by alamar blue assay; assay type: functional, cell-based
[6] = test system: HT-29; experiment: Cytotoxicity against human HT-29 cells by alamar blue assay; assay type: functional, cell-based
[7] = test system: SK-MEL-28; experiment: Cytotoxicity against human SK-MEL-28 cells by alamar blue assay; assay type: functional, cell-based
[8] = test system: THP-1; experiment: Immunostimulatory activity in human THP1 cells assessed as LPS-induced NF-kappaB activation at =< 50 ug/mL by luciferase reporter gene assay; assay type: functional, cell-based
[9] = test system: Toxoplasma gondii; experiment: Antiparasitic activity against Toxoplasma gondii RH infected in mouse L929 cells assessed as [3H]uracil incorporation at 1 uM after 72 hrs by scintillation counting; assay type: functional
[10] = test system: Staphylococcus aureus; experiment: Antibacterial activity against Staphylococcus aureus; assay type: functional, organism-based
[11] = test system: Aspergillus fumigatus; experiment: Antifungal activity against Aspergillus fumigatus; assay type: functional, organism-based
[12] = test system: Mycobacterium tuberculosis; experiment: Antitubercular activity against Mycobacterium tuberculosis at 6.25 ug/mL; assay type: functional
[13] = test system: Candida albicans; experiment: Antifungal activity against Candida albicans; assay type: functional, organism-based
[14] = test system: Plasmodium falciparum; experiment: Antimalarial activity against chloroquine-resistant Plasmodium falciparum W2; assay type: functional, organism-based
[15] = test system: Cryptococcus neoformans; experiment: Antifungal activity against Cryptococcus neoformans; assay type: functional, organism-based
[16] = test system: Staphylococcus aureus; experiment: Antibacterial activity against methicillin-resistant Staphylococcus aureus; assay type: functional, organism-based
[17] = test system: Mycobacterium intracellulare; experiment: Antibacterial activity against Mycobacterium intracellular; assay type: functional, organism-based
[18] = test system: P388; experiment: Cytotoxicity against mouse P388 cells by alamar blue assay; assay type: functional, cell-based
[19] = test system: Plasmodium berghei; experiment: Antimalarial activity as increased survival against Plasmodium berghei ANKA infected Swiss albino mice (Mus musculus) at 100 uM/kg intraperitoneal dose; assay type: functional, organism-based
[20] = test system: Pseudomonas aeruginosa; experiment: Antibacterial activity against Pseudomonas aeruginosa; assay type: functional, organism-based
[21] = test system: Hepatitis B virus; experiment: Antiviral activity against Hepatitis B virus cell culture assay; assay type: functional, organism-based
[22] = test system: Plasmodium berghei; experiment: Antimalarial activity against Plasmodium berghei ANKA infected Swiss albino mice (Mus musculus) intraperitoneal dose over 3 days; assay type: functional, organism-based

CCN(CC)CCCC(C)Nc1ccnc2cc(Cl)ccc12 (stereo not given) [CHLOROQUINE]
Activity [1]: 0.1%

C[C@@H]1CC[C@H]2[C@@H](C)C(=O)O[C@@H]3O[C@@]4(C)CC[C@@H]1[C@]32OO4 [ARTEMISININ]
IC50 [2]: 0.012 µg/mL (≈ 0.0425 µM) | Activity [1]: 35.9%

CO[C@H]1/C=C/O[C@@]2(C)Oc3c(C)c(O)c4c(O)c(c(/C=N/N5CCN(C)CC5)c(O)c4c3C2=O)NC(=O)/C(C)=C\C=C\[C@H](C)[C@H](O)[C@@H](C)[C@@H](O)[C@@H](C)[C@H](OC(C)=O)[C@@H]1C [RIFAMPIN]
MIC [3]: 0.25 µg/mL (≈ 0.304 µM)

Cc1cn([C@H]2C[C@H](N=[N+]=[N-])[C@@H](CO)O2)c(=O)[nH]c1=O [ZIDOVUDINE]
EC50 [4]: 0.004 µM

CC/C(=C(\c1ccccc1)c1ccc(OCCN(C)C)cc1)c1ccccc1 [TAMOXIFEN]
IC50 [5]: 1.86 µg/mL (≈ 5.01 µM) | IC50 [6]: 1.86 µg/mL (≈ 5.01 µM) | IC50 [7]: 1.86 µg/mL (≈ 5.01 µM)

Cc1cc2c(cc1Br)[C@]1(C)CC[C@](C)(CO2)[C@@H]1C
Activity [8]: inactive

O=C1C(O)=C([C@H]2CC[C@H](c3ccc(Cl)cc3)CC2)C(=O)c2ccccc21 [ATOVAQUONE]
inhibition at 1 µM [9]: 100%

CC/C=C/C(CC)CCC[C@@]1(CC)C[C@H](CC)[C@H](CC(=O)OC)OO1 (stereo not given in full) [PLAKORTIDE F]
Activity [10]: inactive | Activity [11]: inactive | inhibition at 6.25 µg/mL [12]: 29% | IC50 [5]: 2.5 µg/mL (≈ 7.05 µM) | Activity [13]: inactive | inhibition at 1 µM [9]: 67% | IC50 [6]: 1.25 µg/mL (≈ 3.53 µM) | EC50 [4]: 13 µM | IC50 [14]: 0.39 µg/mL (≈ 1.1 µM) | Activity [15]: inactive | IC50 [7]: 2.5 µg/mL (≈ 7.05 µM) | IC50 [2]: 0.48 µg/mL (≈ 1.35 µM) | Activity [16]: inactive | Activity [1]: inactive | Activity [17]: inactive | IC50 [18]: 1.25 µg/mL (≈ 3.53 µM) | Activity [19]: inactive | Activity [20]: inactive | EC50 [21]: > 100 µg/mL | IC50 [22]: Not Active

Nc1ccn([C@@H]2CS[C@H](CO)O2)c(=O)n1 [LAMIVUDINE]
EC50 [21]: 0.062 µg/mL (≈ 0.27 µM)

CC/C=C/[C@H](CC)CCC[C@@]1(CC)C=C(CC)C(=O)O1 [PLAKORTONE G]
Activity [10]: inactive | Activity [11]: inactive | inhibition at 6.25 µg/mL [12]: 4% | IC50 [5]: > 1 µg/mL | Activity [13]: inactive | IC50 [6]: > 1 µg/mL | IC50 [14]: > 4.76 µg/mL | Activity [15]: inactive | IC50 [7]: > 10 µg/mL | IC50 [2]: 4.2 µg/mL (≈ 15.1 µM) | Activity [16]: inactive | Activity [17]: inactive | Activity [20]: inactive | EC50 [21]: > 100 µg/mL
